# According to article PMC4421842 (Nature Communications, 2015):
# Several values for one entry are separate records, joined by “and”; a condition that tells them apart may be missing. Equal entries are not always repeated. Where two headings read alike, the source gives them in different places.
# Legend:
# MRSA clinical isolates = assay: microbe, parasite or virus in culture; format: cell-based, S. aureus; settings: Staphylococcus aureus, MRSA, read-out: MIC
# Method: MRSA and P. aeruginosa isolates were from Cubist Pharmaceuticals (Lexington, MA). VRE isolates were from a previously published collection. E. coli strains were obtained either from ATCC or Professor Cari Vanderpool (UIUC). A. baumannii isolates were obtained from Dr John Quale[51].
# Susceptibility testing was performed in triplicate, using the microdilution broth method as outlined by the Clinical and Laboratory Standards Institute[52]. Mueller Hinton (MH) broth was used.
# physchem = settings: pH 7.4
# Method: Three independent replicates of each compound were performed.
# [1] = test system: FQR S. aureus (NRS3, FQR); assay: MIC, microdilution broth assay, FQR MRSA NRS3; format: cell-based; settings: for MIC: Staphylococcus aureus
# [2] = Pharmacokinetic assessment; format: in vivo, C57BL/6 mice
# Method: (§1) The animal studies (PK, in-vivo toxicity and in-vivo efficacy) were carried out in strict accordance with the recommendations in the Guide for the Care and Use of Laboratory Animals of the National Institutes of Health. […] In these studies, 10- to 12-week-old female C57BL/6 mice purchased from Charles River were used. DNM, DNM-2 and DNM-3 were formulated as slurries at 8.3 mg ml^−1 in 25% Cremophor RH40/water (v/v). Before beginning the pharmacokinetic assessment, mice were first tested for their ability to tolerate the DNM, DNM-2 and DNM-3 at 50 mg kg^−1 (p.o.). […] At specified time points, mice were killed and blood was collected, centrifuged and the serum was frozen at −80 °C until analysis. The proteins in a 50-μl aliquot of serum were precipitated by the addition of 50 μl of acetonitrile and the sample was centrifuged to remove the proteins. Serum concentrations of DNM, DNM-2 and DNM-3 were determined by HPLC. PK parameters were determined using GraphPad Prism Version 5.00 for Windows.
# [3] = Tolerability in mice (maximal tolerated dose); format: in vivo; settings: increasing doses, highest dose evaluated 50 mg kg^−1 by oral gavage
# Method: as §1
# [4] = test system: WT S. aureus (ATCC 29213, WT); assay: microbe, parasite or virus in culture; format: cell-based; settings: for MIC against S. aureus 29213: ATCC 29213; for MIC: Staphylococcus aureus
# [5] = NRS3, S84L GyrA and S80F ParC, three independent replicates
# [6] = female, C57BL/6, mouse, in vivo, C57/BL6 mice, 50 mg kg-1 oral gavage, serum
# [7] = WT GyrA and WT ParC, three independent replicates
# [8] = ATCC29213, ATCC 29213, WT GyrA and WT ParC, three independent replicates, read-out: MIC against S. aureus 29213
# [9] = NRS3, S84L GyrA and S80F ParC, three independent replicates, read-out: MIC against S. aureus NRS3
compound,measurement,setting,value
"CC1(C)S[C@@H]2[C@H](NC(=O)[C@H](N)c3ccccc3)C(=O)N2[C@H]1C(=O)O [Amp, Ampicillin, reference compound]",MIC,MRSA clinical isolates; strain SAU.1118,> 64 µg/mL
same,MIC,MRSA clinical isolates; strain SAU.3024,> 64 µg/mL
same,MIC,MRSA clinical isolates; strain SAU.3025,64 µg/mL
same,MIC,MRSA clinical isolates; strain SAU.419,> 64 µg/mL
same,MIC,MRSA clinical isolates; strain SAU.42,2 µg/mL
same,MIC,MRSA clinical isolates; strain SAU.446,> 64 µg/mL
same,MIC,MRSA clinical isolates; strain SAU.447,> 64 µg/mL
same,MIC,MRSA clinical isolates; strain SAU.555,> 64 µg/mL
CCc1cc(=O)n2c3c(c4c(cc13)c(C)cc(=O)n4C)OC2 [DNM-3],solubility at 1 h,physchem,27 µM
same,MIC against S. aureus NRS3,[1]; [5],0.12 µg/mL
same,AUC,[2]; [6],4000 ng·h/mL
same,Tmax,[2]; [6],1.1 h
same,half-life,[2]; [6],1.2 h
same,Cmax,"[2]; female, C57BL/6, mouse, mice, 50 mg kg^−1 oral dose, serum, read-out: Cmax (peak serum concentration)",4.3 µM and 1260 ng/mL
same,oral bioavailability / serum exposure,"[2]; mice, 50 mg kg^−1 oral dose",intermediate level of bioavailability
same,area under the curve,"[2]; mice, 50 mg kg^−1 oral dose, serum",4000 ng·h/mL
same,tolerability,[3],well tolerated up to the highest dose evaluated
same,MIC against S. aureus 29213,[4]; [7],8 µg/mL
same,MIC,[4]; [8],8 µg/mL
"CO[C@@H]1[C@@H](OC(N)=O)[C@@H](O)[C@H](Oc2ccc3c(O)c(NC(=O)c4ccc(O)c(CC=C(C)C)c4)c(=O)oc3c2C)OC1(C)C [Novo, Novobiocin, reference compound]",MIC,MRSA clinical isolates; strain SAU.1118,0.5 µg/mL
same,MIC,MRSA clinical isolates; strain SAU.3017,0.5 µg/mL
same,MIC,MRSA clinical isolates; strain SAU.3021,0.25 µg/mL
same,MIC,MRSA clinical isolates; strain SAU.419,0.25 µg/mL
same,MIC,MRSA clinical isolates; strain SAU.42,0.5 µg/mL
same,MIC,MRSA clinical isolates; strain SAU.447,0.25 µg/mL
same,MIC,MRSA clinical isolates; strain SAU.555,0.25 µg/mL
same,MIC,MRSA clinical isolates; strain SAU.846,0.125 µg/mL
Cc1cc(=O)[nH]c2c(O)c3c(cc12)c(C)cc(=O)n3C [compound 1],MIC,"[1]; NRS3, read-out: MIC against S. aureus NRS3",4 µg/mL
same,MIC,[4]; [8],2 µg/mL
CCc1cc(=O)n(C)c2c3c4c(cc12)c(C)cc(=O)n4CO3 [compound 4],solubility at 1 h,physchem,53 µM
same,MIC against S. aureus NRS3,[1]; [5],0.25 µg/mL
same,MIC against S. aureus 29213,[4]; [7],8 µg/mL
same,MIC,[4]; [8],8 µg/mL
Cc1cc(=O)n(C)c2c3c4c(cc12)c(C)cc(=O)n4C(C)O3 (stereo not drawn) [compound 5],MIC against S. aureus 29213,[4]; [7],4 µg/mL
same,MIC,[4]; [8],4 µg/mL
CCCc1cc(=O)n2c3c(c4c(cc13)c(C)cc(=O)n4C)OC2 [compound 6],MIC against S. aureus NRS3,[1]; [5],0.25 µg/mL
same,MIC against S. aureus 29213,[4]; [7],16 µg/mL
same,MIC,[4]; [8],16 µg/mL
CCCc1cc(=O)n(C)c2c3c4c(cc12)c(C)cc(=O)n4CO3 [compound 7],MIC against S. aureus NRS3,[1]; [5],1 µg/mL
same,MIC against S. aureus 29213,[4]; [7],16 µg/mL
same,MIC,[4]; [8],16 µg/mL
CCCCCn1c(=O)cc(C)c2cc3c(C)cc(=O)n4c3c(c21)OC4 [compound 9],MIC against S. aureus NRS3,[1]; [5],0.25 µg/mL
same,MIC against S. aureus 29213,[4]; [7],32 µg/mL
same,MIC,[4]; [8],32 µg/mL
CCCCCCn1c(=O)cc(C)c2cc3c(C)cc(=O)n4c3c(c21)OC4 [compound 10],MIC against S. aureus NRS3,[1]; [5],1 µg/mL
same,MIC against S. aureus 29213,[4]; [7],> 64 µg/mL
same,MIC,[4]; [8],> 64 µg/mL
Cc1cc(=O)n2c3c(c4c(cc13)c(C)cc(=O)n4CC(C)C)OC2 [compound 11],MIC against S. aureus NRS3,[1]; [5],2 µg/mL
same,MIC against S. aureus 29213,[4]; [7],> 32 µg/mL
same,MIC,[4]; [8],> 32 µg/mL
Cc1cc(=O)n2c3c(c4c(cc13)c(C)cc(=O)n4CC(C)(C)C)OC2 [compound 12],MIC against S. aureus NRS3,[1]; [5],16 µg/mL
same,MIC against S. aureus 29213,[4]; [7],32 µg/mL
same,MIC,[4]; [8],32 µg/mL
CCc1cc(=O)n(C)c2c3c4c(cc12)c(CC)cc(=O)n4CO3 [compound 13],solubility at 1 h,physchem,48 ± 8 µM
same,MIC against S. aureus NRS3,[1]; [5],16 µg/mL
same,MIC against S. aureus 29213,[4]; [7],> 32 µg/mL
same,MIC,[4]; [8],> 32 µg/mL
CCCCn1c(=O)cc(CCC)c2cc3c(CCC)cc(=O)n4c3c(c21)OC4 [compound 15],MIC against S. aureus NRS3,[1]; [5],32 µg/mL
same,MIC against S. aureus 29213,[4]; [7],> 32 µg/mL
same,MIC,[4]; [8],> 32 µg/mL
"CCCCCCCCCC(=O)N[C@@H](Cc1c[nH]c2ccccc12)C(=O)N[C@H](CC(N)=O)C(=O)N[C@@H](CC(=O)O)C(=O)N[C@@H]1C(=O)NCC(=O)N[C@@H](CCCN)C(=O)N[C@@H](CC(=O)O)C(=O)N[C@H](C)C(=O)N[C@@H](CC(=O)O)C(=O)NCC(=O)N[C@H](CO)C(=O)N[C@@H]([C@H](C)CC(=O)O)C(=O)N[C@@H](CC(=O)c2ccccc2N)C(=O)O[C@@H]1C [daptomycin, reference compound]",MIC against S. aureus NRS3,[1]; [5],8 µg/mL
same,MIC,[1]; [9],8 µg/mL
same,MIC,[4]; [8],2 µg/mL
"CC(=O)NC[C@H]1CN(c2ccc(N3CCOCC3)c(F)c2)C(=O)O1 [linezolid, reference compound]",MIC against S. aureus NRS3,[1]; [5],0.5 µg/mL
same,MIC,[1]; [9],0.5 µg/mL
"CN[C@H](CC(C)C)C(=O)N[C@H]1C(=O)N[C@@H](CC(N)=O)C(=O)N[C@H]2C(=O)N[C@H]3C(=O)N[C@H](C(=O)N[C@H](C(=O)O)c4cc(O)cc(O)c4-c4cc3ccc4O)[C@H](O)c3ccc(c(Cl)c3)Oc3cc2cc(c3O[C@@H]2O[C@H](CO)[C@@H](O)[C@H](O)[C@H]2O[C@H]2C[C@](C)(N)[C@H](O)[C@H](C)O2)Oc2ccc(cc2Cl)[C@H]1O [vancomycin, reference compound]",MIC,MRSA clinical isolates; strain SAU.1118,2 µg/mL
same,MIC,MRSA clinical isolates; strain SAU.2996,1 µg/mL
same,MIC,MRSA clinical isolates; strain SAU.3017,1 µg/mL
same,MIC,MRSA clinical isolates; strain SAU.3021,1 µg/mL
same,MIC,MRSA clinical isolates; strain SAU.3024,2 µg/mL
same,MIC,MRSA clinical isolates; strain SAU.419,4 µg/mL
same,MIC,MRSA clinical isolates; strain SAU.42,1 µg/mL
same,MIC,MRSA clinical isolates; strain SAU.446,2 µg/mL
same,MIC,MRSA clinical isolates; strain SAU.555,1 µg/mL
same,MIC,MRSA clinical isolates; strain SAU.846,8 µg/mL
same,MIC against S. aureus NRS3,[1]; [5],8 µg/mL
same,MIC,[1]; [9],8 µg/mL
same,MIC,"[4]; ATCC29213, read-out: MIC against S. aureus 29213",1 µg/mL
